{"source": "paper PMC9636434", "about": "“Discovery of small molecule agonists of the Relaxin Family Peptide Receptor 2” (Communications Biology, 2022)", "key": {"[1]": {"molecular_target": "chimera RXFP1-2 (extracellular domain of RXFP1, transmembrane domain of RXFP2) (Homo sapiens, UniProt Q8WXD0)", "sequence (Q8WXD0 417-754 limits assumed, stated change not applied)": "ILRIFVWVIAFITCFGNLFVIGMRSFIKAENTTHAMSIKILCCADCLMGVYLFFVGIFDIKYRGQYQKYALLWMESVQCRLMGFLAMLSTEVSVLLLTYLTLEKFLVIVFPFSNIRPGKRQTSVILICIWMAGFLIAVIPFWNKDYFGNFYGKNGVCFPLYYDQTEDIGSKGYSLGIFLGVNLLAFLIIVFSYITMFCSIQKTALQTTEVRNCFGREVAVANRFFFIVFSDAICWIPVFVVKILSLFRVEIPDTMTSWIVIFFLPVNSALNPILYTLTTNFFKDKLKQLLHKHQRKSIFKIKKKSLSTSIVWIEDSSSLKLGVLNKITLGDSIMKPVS", "sequence (Q9HBX9 1-409, stated change not applied, further chain)": "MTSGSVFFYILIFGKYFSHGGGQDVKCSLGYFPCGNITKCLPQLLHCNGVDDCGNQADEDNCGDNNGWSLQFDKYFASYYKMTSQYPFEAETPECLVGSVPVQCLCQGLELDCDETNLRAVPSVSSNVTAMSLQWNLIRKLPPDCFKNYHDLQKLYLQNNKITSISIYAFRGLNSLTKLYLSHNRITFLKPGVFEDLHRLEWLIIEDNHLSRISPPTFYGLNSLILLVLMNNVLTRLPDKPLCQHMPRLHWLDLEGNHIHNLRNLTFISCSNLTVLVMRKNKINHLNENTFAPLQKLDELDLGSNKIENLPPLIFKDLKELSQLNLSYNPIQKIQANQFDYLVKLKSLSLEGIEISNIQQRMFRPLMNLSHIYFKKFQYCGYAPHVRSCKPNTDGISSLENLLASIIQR", "experiment": "HTRF cAMP assay in HEK293T cells transiently transfected with chimera RXFP1-2", "assay_type": "cell-based", "conditions": "for Emax: HEK-293T", "protocol": "(§1) Fig. 2 6641 is an allosteric agonist of RXFP2. a HEK-RXFP2 cells co-treated with serial dilutions of INSL3 B dimer antagonist and 30 nM INSL3 or 0.28 µM 6641. HTRF cAMP dose-response inhibition curves were normalized to activity without antagonist co-treatment as 0% inhibition. b HTRF cAMP assay in HEK293T cells transiently transfected with WT or chimeric receptors. Chimera RXFP2-1 contains the extracellular domain of RXFP2 and the transmembrane domain of RXFP1, while chimera RXFP1-2 contains the extracellular domain of RXFP1 and the transmembrane domain of RXFP2. For each receptor, cAMP response induced by INSL3 and 6641 was normalized to FSK (2 µM) as 100% efficacy and DMSO vehicle as 0% efficacy. Emax and EC50 were calculated using four parameter nonlinear fit dose-response curves. Results are expressed as mean ± SEM of 3 independent experiments. Diagrams of the chimeric receptors were produced using GPCRdb.org[58], [59].\n(§2) Complementary RXFP2-1 and RXFP1-2 chimeric receptors were used to further investigate the involvement of the RXFP2 extracellular and transmembrane domains on 6641 activity. RXFP2-1 has the extracellular domain of RXFP2 and transmembrane domain of RXFP1, and RXFP1-2 is its complement.\n(§3) The HTRF Gs dynamic cAMP assay kit (CisBio, Bedford, MA) was used to measure intracellular cAMP accumulation in HEK293T cells (ATCC, Manassas, VA)[56]. […] The cell stock was verified mycoplasma free and authenticated by ATCC. Transient transfection was accomplished by treating cells in a 6-well plate with a mixture of 2 μg plasmid and 6 μL Lipofectamine 2000 (Invitrogen, Waltham, MA) per manufacturer’s protocol and incubating overnight. For cAMP measurement in 96-well format, HEK293T cells stably transfected with human RXFP2 (HEK-RXFP2), human RXFP1 (HEK-RXFP1), mouse Rxfp1 (HEK-Rxfp1) or transiently transfected with human RXFP1-RXFP2 chimeric receptors were seeded between 7500 and 30,000 cells per well, depending on cell line responsiveness, in serum-free DMEM medium and incubated overnight at 37 °C, 5% CO2. After 18 h, cells were treated with a titration of compound, 2 μM forskolin, or DMSO vehicle. Control wells were also treated with a titration of INSL3 (Phoenix Pharmaceuticals, Burlingame, CA) or human recombinant relaxin 2 (Peprotech, Cranbury, NJ). For the RXFP2 antagonist experiment, cells were co-treated with 0.28 μM compound or 30 nM INSL3 and a titration of the INSL3 B dimer antagonist[38],[39]. For the INSL3 allosteric modulation experiment, cells were co-treated with 0.025, 0.0025, or 0.00025 μM of compound and a titration of INSL3. Cells were incubated for 1 h at 37 °C, 5% CO2, and then kit cAMP-d2 and anti-cAMP antibody were added per manufacturer protocol. Plates were incubated for 1 h at room temperature and the signal was read on a CLARIOstar plate reader (BMG Labtech, Ortenberg, Germany) at 665 and 620 nm emission wavelengths."}, "[2]": {"tested_on": "chimera RXFP1-2 (extracellular domain of RXFP1, transmembrane domain of RXFP2)", "sequence (Q8WXD0 417-754 limits assumed, change not shown)": "as the sequence (Q8WXD0 417-754 limits assumed, stated change not applied) above", "sequence (Q9HBX9 1-409, change not shown, further chain)": "as the sequence (Q9HBX9 1-409, stated change not applied, further chain) above", "experiment": "HTRF cAMP assay in HEK293T cells transiently transfected with chimera RXFP1-2", "assay_type": "cell-based, human", "protocol": "as §1, §2, §3"}, "WT RXFP2": {"molecular_target": "T1, WT RXFP2 (Homo sapiens, UniProt Q8WXD0)", "T1 construct": "FLAG (N); expressed in transfected cells; host or cells: HEK293T (transient)", "T1 sequence (Q8WXD0 whole entry)": "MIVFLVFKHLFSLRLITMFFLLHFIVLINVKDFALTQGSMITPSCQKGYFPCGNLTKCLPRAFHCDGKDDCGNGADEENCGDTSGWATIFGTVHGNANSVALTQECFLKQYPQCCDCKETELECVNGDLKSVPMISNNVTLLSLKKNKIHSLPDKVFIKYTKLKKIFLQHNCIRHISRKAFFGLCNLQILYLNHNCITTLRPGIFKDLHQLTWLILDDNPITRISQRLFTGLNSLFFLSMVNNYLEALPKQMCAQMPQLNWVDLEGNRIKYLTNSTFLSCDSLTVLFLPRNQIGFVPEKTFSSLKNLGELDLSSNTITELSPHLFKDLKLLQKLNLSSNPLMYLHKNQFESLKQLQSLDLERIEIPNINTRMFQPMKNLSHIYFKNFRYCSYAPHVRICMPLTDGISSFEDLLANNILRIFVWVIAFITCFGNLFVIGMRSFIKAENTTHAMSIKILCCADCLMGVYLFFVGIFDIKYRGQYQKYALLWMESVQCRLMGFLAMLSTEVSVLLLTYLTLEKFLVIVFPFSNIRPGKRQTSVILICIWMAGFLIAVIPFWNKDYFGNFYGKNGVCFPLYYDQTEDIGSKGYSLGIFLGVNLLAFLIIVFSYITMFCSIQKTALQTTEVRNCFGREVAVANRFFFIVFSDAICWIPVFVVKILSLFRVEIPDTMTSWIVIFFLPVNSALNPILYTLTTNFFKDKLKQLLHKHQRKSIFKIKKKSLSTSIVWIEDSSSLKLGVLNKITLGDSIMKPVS", "experiment": "HTRF cAMP assay in HEK293T cells transiently transfected with WT RXFP2", "assay_type": "cell-based", "conditions": "for Emax: HEK-293T", "protocol": "as §1, §2, §3"}, "RXFP2": {"molecular_target": "RXFP2 (Homo sapiens, UniProt Q8WXD0)", "sequence (Q8WXD0 whole entry)": "as above", "experiment": "Confirmatory CRE-luciferase reporter assay in HEK-CRE-Luc-RXFP2 cells", "assay_type": "cell-based", "set-up": "FLAG (N); expressed in transfected cells", "conditions": "for % Eff (CRE-luciferase): experiments (1)-(3)", "protocol": "A quantitative high-throughput screening (HTS) of more than 80 K compounds of the NCATS/NIH diversity collection was performed at four concentrations in HEK293T cells stably expressing human RXFP2 to identify candidate agonists. A homogenous time resolved fluorescence (HTRF) assay was used to directly detect compound-induced cAMP accumulation, with forskolin or human recombinant INSL3 serving as positive controls. […] Selected compounds with reasonable activity in dose response were also tested in a confirmatory orthogonal screening using a cAMP response element (CRE) driven luciferase reporter assay in HEK-CRE-Luc-RXFP2 cells, and in a counter-screen with cells transfected with human relaxin/insulin-like family peptide receptor 1 (RXFP1). Finally, we performed an extensive structure activity relationship campaign (SAR) to increase both the agonist efficacy and potency of the lead series. […] A confirmatory CRE-luciferase cAMP screen was used to eliminate any potential false positives due to assay detection artifacts (Supplementary Fig. 1a).\nHEK293T-CRE-Luc cells express luciferase under the control of the cAMP response element (CRE), which allows for indirect measurement of intracellular cAMP accumulation. HEK293T-CRE-Luc cells were stably transfected with human RXFP2 (HEK-CRE-Luc-RXFP2) or transiently transfected as above with mouse Rxfp2 (HEK-CRE-Luc-Rxfp2). HEK-CRE-Luc-RXFP2 and HEK-CRE-Luc-Rxfp2 cells were seeded at 15,000 and 30,000 cells per well, respectively, in 96-well plates using serum-free DMEM medium and incubated overnight at 37 °C, 5% CO2. After 18 h, cells were treated with a titration of compound, a titration of INSL3, 5 μM forskolin or DMSO vehicle. After treatment, cells were incubated for 3 h at 37 °C, 5% CO2. Plates were then allowed to equilibrate for 30 min at room temperature and an equal volume of substrate (Amplite Luciferase Reporter Gene Assay Kit, AAT Bioquest, Sunnyvale, CA) was added to each well. Plates were incubated for 40 min at room temperature protected from light and the luciferase output was read on a CLARIOstar plate reader.\nSupplementary Fig. 1: Compounds activate both human and mouse RXFP2 receptors. a Confirmatory CRE-Luciferase screening of RXFP2 agonists in st a b ly transfected HEK-CRE-Luc-RXFP2 cells. b Activation of mouse RXFP2 receptor by the compounds in transiently transfected HEK293T-CRE-Luc cells. Compound response was normalized to 100 nM INSL3 as 100% efficacy and DMSO vehicle as 0% efficacy.\nResults are expressed as mean ± SEM of 3 independent experim ents.\n(1 picture or pasted object on this page, not shown here)"}, "[3]": {"conditions": "6641, individual experiments, read-out: EC50 (1)-(3)"}, "[4]": {"conditions": "mean (± SEM) of 3, FSK (2 µM) = 100% efficacy, read-out: Emax (AVERAGE)"}}, "note": "“And” between values parts separate entries of the source, which are not always exact repeats. Identical values can stand only once. Like-named read-outs stand apart in the source and are kept apart here."}
{"smiles": "O=C1Nc2ccc(-c3cc(C(F)(F)F)cc(C(F)(F)F)c3)cc2C(=O)N2CCN(C(=O)COc3ccc(OC(F)(F)F)cc3I)C[C@@H]12", "note": "[compound 6641]", "values": [{"measurement": "EC50", "setting": "[1]; [3]", "result": "19 nM and 14 nM"}, {"measurement": "Emax", "setting": "[1]; individual experiments, FSK (2 µM) = 100% efficacy, read-out: Emax (1)-(3)", "result": 96.5, "unit": "%"}, {"measurement": "Emax", "setting": "[1]; [4]", "result": "96.47 ± 0.43", "unit": "%"}, {"measurement": "EC50", "setting": "[2]; [3]", "result": 17, "unit": "nM"}, {"measurement": "Emax (1)-(3)", "setting": "[2]; individual experiments, FSK (2 µM) = 100% efficacy", "result": "95.72% and 97.22%"}, {"measurement": "EC50", "setting": "WT RXFP2; [3]", "result": "4.7 nM and 28 nM and 3.17 nM"}, {"measurement": "EC50", "setting": "WT RXFP2; 6641, mean (± SEM) of 3, read-out: EC50 (AVERAGE)", "result": 12, "unit": "nM"}, {"measurement": "Emax", "setting": "WT RXFP2; individual experiments, FSK (2 µM) = 100% efficacy, DMSO = 0%, read-out: Emax (1)-(3)", "result": 91.1, "unit": "%"}, {"measurement": "Emax", "setting": "WT RXFP2; [4]", "result": 86.3, "unit": "%"}, {"measurement": "Emax (1)-(3)", "setting": "WT RXFP2; individual experiments, FSK (2 µM) = 100% efficacy, DMSO = 0%", "result": "79.79% and 88%"}, {"measurement": "agonism of human RXFP2 in CRE-luciferase reporter assay", "setting": "RXFP2; HEK-CRE-Luc-RXFP2", "result": "full agonist"}, {"measurement": "% Eff (CRE-luciferase)", "setting": "RXFP2; Log [M] -4.60, 100 nM INSL3 = 100%, DMSO = 0%", "result": "112.29% and 97.22% and 133.29%"}, {"measurement": "% Eff (CRE-luciferase)", "setting": "RXFP2; Log [M] -5.00", "result": "116.16% and 119.1% and 157.5%"}, {"measurement": "% Eff (CRE-luciferase)", "setting": "RXFP2; Log [M] -5.78", "result": "114.59% and 98.52% and 126.86%"}, {"measurement": "% Eff (CRE-luciferase)", "setting": "RXFP2; Log [M] -6.56", "result": "113.18% and 86.94% and 103.38%"}, {"measurement": "% Eff (CRE-luciferase)", "setting": "RXFP2; Log [M] -7.33", "result": "77.02% and 61.6% and 70.55%"}, {"measurement": "% Eff (CRE-luciferase)", "setting": "RXFP2; Log [M] -8.11", "result": "44.24% and 30.05% and 30.02%"}, {"measurement": "% Eff (CRE-luciferase)", "setting": "RXFP2; Log [M] -8.89", "result": "14.74% and 8.06% and 7.85%"}, {"measurement": "% Eff (CRE-luciferase)", "setting": "RXFP2; Log [M] -9.67", "result": "6.98% and 1.71% and 0.6%"}]}
